Key:
FRDA lymphocytes [1] = assay: Cytotoxicity assay in FRDA lymphocytes cultured in glucose free media (galactose), Live/Dead flow cytometry; assay type: cell-based; details: FRDA lymphocytes, galactose as sole sugar source, 24 h or 48 h incubation (FIG. 2)
Method: Flow cytometric determination of cell viability by fluorescence labeling was used employing calcein acetoxy-methyl-ester and ethidium homodimer-1 as live and dead cell stains
Cytotoxicity was assessed by the dye exclusion method. Live cells have intact membranes, which exclude a variety of dyes that easily penetrate the damaged, permeable membranes of non-viable cells. Propidium iodide, a membrane impermeant dye, is generally excluded from viable cells, although it can enter non-viable cells and bind to double-stranded DNA by intercalating between base pairs. Compounds 1-5 were tested for their cytotoxicity in FRDA lymphocytes using FACS analysis with propidium iodide. The results are depicted in FIG. 2. From the results it is evident that cytotoxicity decreases with increasing lipophilicity in lower as well as higher concentrations for compounds 1-5.
Evaluation of compounds 1-5 for their cytotoxicity and their ability to function within the mitochondrial respiratory chain was carried out by incubation of the prepared compounds for 24 or 48 h with FRDA lymphocytes. A nutrient-sensitized screening strategy has been used by culturing FRDA cells in galactose as the sole sugar source which forces mammalian cells to rely on mitochondrial oxidative phosphorylation (OXPHOS) to produce their ATP; they also become more sensitive to mitochondrial respiratory chain inhibitors than cells grown in glucose medium. Compounds 1-5 were tested for their cytotoxicity in FRDA lymphocytes using a simultaneous staining with a two-color fluorescence assay, the Live/Dead® Viability/Cytotoxicity Kit (Molecular Probes). This assay is used to measure two recognized parameters of cell viability, intracellular esterase activity and plasma integrity. The membrane-impermeant DNA dye ethidium homodimer-1 (EthD-1) was used to identify dead cells whose plasma membrane integrity was disrupted. The membrane-permeant dye calcein-AM was used to label live cells. It penetrates into the cells where it is metabolized by cytoplasmic esterases and becomes a fluorescent but membrane-impermeant probe which is retained in viable cells. One mL of FRDA lymphocyte cells (5×10^5 cells) was plated in a 24-well plate in glucose free media (galactose 25 mM), treated with the test compounds and incubated at 37° C. for 24 h or 48 h in a humidified atmosphere containing 5% CO2 in air. Cells were collected by centrifugation at 300×g for 3 min and washed with phosphate buffered saline. […] The samples were analyzed immediately by flow cytometry (C6 Accuri, BD Biosciences, San Jose, Calif.), using a 488 nm excitation laser and the and the FL1-H channel 530±15 nm emission filter and the FL2-H channel 585±15 nm. For each analysis 10,000 events were recorded and analyzed using C6 Accuri software (BD Biosciences).

FRDA lymphocytes [2] = assay: Measurement of cellular ATP concentration (firefly luciferase); assay type: cell-based, human; details: glucose free media (25 mM galactose), relative to untreated control (FIG. 6)
Method: Results are expressed as percentage of total ATP relative to untreated control.
ATP levels in FRDA lymphocytes were measured using firefly luciferase. The cells were grown on glucose-free media supplemented with galactose for 24 h prior to the addition of the test compounds. Since cells grown in galactose rely mostly on oxidative phosphorylation (OX-PHOS) to produce their ATP, they become more sensitive to mitochondrial respiratory chain inhibitors than cells grown in glucose medium.
Measurement of Cellular ATP Concentration
Total ATP levels in FRDA lymphocytes with or without partially blocking complex I activity with rotenone (5 nM) were measured using firefly luciferase as a means to measure ATP level. The cells were grown on glucose-free media supplemented with galactose. Since cells grown in galactose rely mostly on oxidative phosphorylation (OXPHOS) to produce their ATP, they become more sensitive to mitochondria respiratory chain inhibitors than cells grown in glucose medium. Briefly, lymphocytes (2×10^5 cell/mL) were plated (1 mL) in 24-well plates, treated with the test compounds, and then incubated at 37° C. for 48 h in a humidified atmosphere containing 5% CO2 in air. FRDA lymphocytes with partial inhibition of complex I, cells were preincubated with test compounds for overnight before rotenone (5 nM) treatment for 24 h. Cells in each well were mixed and transferred (100 μL) to 96-well microtiter black-walled cell culture plates (Costar, Corning, N.Y.). The total intracellular ATP level was measured in a luminator (Clarity™ luminescence microplate reader) using an ATP Bioluminescence Assay Kit (ViaLight®-Plus ATP monitoring reagent kit, Lonza) following the manufacturer's protocol. The total ATP level was expressed as a percentage of untreated control. Data are reported as the mean of at least three independent experiments.

[3] = tested on: FRDA lymphocytes treated with rotenone (complex I inhibition); assay: Cytoprotection of rotenone-treated FRDA lymphocytes; assay type: cell-based, human; details: 12 h preincubation in glucose-free media, then rotenone (50 nM) 24 h or 48 h (FIG. 3)
[4] = tested on: FRDA lymphocyte cells (GM15850); assay: Reactive oxygen species (ROS) assay, DCFH-DA, diethyl maleate-treated FRDA lymphocytes; assay type: cell-based, human; details: 16 h pretreatment, 5 mM diethyl maleate 80 min, DCFH-DA (FIG. 5)
Method: The ability of compounds 1-5 to suppress ROS induced by the depletion of cellular glutathione was evaluated in FRDA lymphocytes in a quantitative FACS experiment using dichlorofluorescein diacetate (DCFH-DA) as an indicator of intracellular ROS levels. In cells DCFH-DA is hydrolyzed by esterases to afford 2, 7-dichlorodihydrofluorescein (DCFH). The non-fluorescent DCFH can be oxidized by cellular oxidants generating fluorescent dichlorofluorescein (DCF).
Reactive Oxygen Species (ROS) Assay
Intracellular ROS production was measured in FRDA lymphocyte cells (GM15850, Coriell Cell Repositories, Camden, N.J.) using the oxidant sensitive fluorescent probe 2,7-dichlorodihydrofluorescein diacetate (DCFH-DA) (Molecular Probes) as described previously. […] The samples were analyzed immediately by flow cytometry (C6 Accuri, BD Biosciences, San Jose, Calif.), using a 488 nm excitation laser and the FL1-H channel 530±15 nm emission filter for DCF and FL2-H channel 585±15 nm emission filter for propidium iodide. The generation of ROS, mainly peroxides, was detected as a result of the oxidation of DCFH. In each analysis, 10,000 events were recorded after dead cell and debris were gated out. […] ROS production was evaluated only in living cells which are propidium iodide negative. […] Results were expressed as percentage of ROS scavenging activity or as percentage of the median fluorescence intensity of DCF.

[5] = tested on: FRDA fibroblasts (GM04078); assay: Cytoprotection of BSO-treated FRDA fibroblasts, Live/Dead kit; assay type: cell-based, human; details: overnight preincubation, then BSO (5 mM) 48 h (FIG. 7)
Method: Results obtained were verified by running triplicates and repeating experiments in two independent runs.
The ability of test compounds 1-5 to confer cytoprotection to buthionine sulfoximine (BSO)-treated FRDA fibroblasts from oxidative damage-induced death was determined by using simultaneous staining with a two-color fluorescence assay, the Live/Dead® Viability/Cytotoxicity Kit (Molecular Probes, Eugene, Oreg.). The cells were subjected to L-buthionine (S,R)-sulfoximine, an inhibitor of de novo glutathione (GSH) biosynthesis. Oxidative damage-induced death of FRDA fibroblasts was blocked by the test compounds in a concentration dependent manner (FIG. 7). […] The optimal side chain length was 15 carbon atoms.
The ability of the test compounds to confer cytoprotection to BSO-treated FRDA fibroblasts was determined by assessing plasma membrane integrity and intracellular esterase activity using the LIVE/DEAD Viability/Cytotoxicity Kit for mammalian cells according to the manufacturer's protocol. Briefly, FRDA fibroblasts (GM04078) were plated in 96-well microtiter plates at a density of 3000 cell/well (50 μL) (Costar, Corning, N.Y.). The plates were incubated at 37° C. for 24 h in an atmosphere having 95% humidity and 5% CO2 to allow attachment of the cells to the culture plates and to allow the cell density reach 50-60% confluency. The next day the test compounds were dissolved in DMSO, diluted to the appropriate concentrations in fresh cell culture media and the cells were then treated with the test compounds (final DMSO concentration was <0.5%). Plates were incubated at 37° C. overnight in a humidified atmosphere containing 5% CO2 in air. […] Fluorescence intensities were measured with a Spectramax M5 spectrofluorometer (Molecular Devices, Sunnyvale, Calif.) using excitation and emission wavelengths of 485 nm and 525 nm, respectively. […] The viability of non-BSO treated fibroblasts was set as 100%, and the viability of the BSO treated and sample-treated cells was calculated relative to this value. Cell viability was expressed as the percentage of control.

[6] = tested on: mitochondrial inner membrane potential in FRDA lymphocytes; assay: JC-1 mitochondrial membrane potential (Δψm) assay; assay type: cell-based, human; details: 16 h pre-treatment, JC-1, FACS (FIG. 4)
Method: In each analysis, 10000 events were recorded. Depolarization with carbonyl cyanide p-(trifluoromethoxy) phenylhydrazone (FCCP), was used to serve as a positive control.
The ability of 1-5 to maintain mitochondrial membrane potential (ΔΨm) compared to the parent compound MV was studied. ΔΨm was determined using the cationic fluorescent dye 5, 5′, 6, 6′-tetrachloro-1, 1′, 3, 3′-tetraethylbenzimidazolyl carbocyanine iodide (JC-1), which is a lipophilic cation that selectively accumulates in mitochondria due to the negative potential across the inner mitochondrial membrane. The dye exists as a monomer at low concentrations giving a green fluorescence. […] Therefore, mitochondrial depolarization is indicated by a decrease in red/green fluorescence ratio. […]
The ability of the test compounds to depolarize or maintains mitochondrial inner membrane potential (Δψm) was assessed using the JC-1 probe. […] JC-1 is a dual stain, which can identify high membrane potential through J-aggregates (red fluorescence) and low membrane potential through J-monomers (green fluorescence). […] Cells were resuspended in phosphate buffered saline supplemented with 20 mM glucose and were analyzed immediately by FACS (C6 Accuri, BD Biosciences, San Jose, Calif.), using a 488 nm excitation laser and the FL1-H channel 530±15 nm emission filter and the FL2-H channel 585±15 nm. […]

Row | SMILES | cytotoxicity (FRDA lymphocytes [1]) | cellular ATP levels (FRDA lymphocytes [2]) | cytoprotection against rotenone cytotoxicity [3] | suppression of ROS induced by depletion of cellular glutathione [4] | cytoprotection from oxidative damage-induced death [5] | preservation of mitochondrial membrane potential (Δψm) [6]
1 | CCCCN(CCCC)c1ccc2nc3ccc(=O)cc-3sc2c1 [Compound 1, 7-(N,N-Dibutylamino)-3H-phenothiazin-3-one] | somewhat cytotoxic | reduces cellular ATP levels in all concentrations | – | – | – | –
2 | CCCCCCCCCCCCCCCN(C)c1ccc2nc3ccc(=O)cc-3sc2c1 [Compound 4, 7-(N-Methyl-N-pentadecylamino)-3H-phenothiazin-3-one] | – | – | protect the cells against rotenone cytotoxicity more efficiently than the parent compound MV | more potent and effective in protecting FRDA lymphocytes than the parent compound MV | better potency than 1 or 2 | –
3 | CCCCCCCCCCCCCCCN(CCCC)c1ccc2nc3ccc(=O)cc-3sc2c1 [Compound 5, 7-(N-Butyl-N-pentadecylamino)-3H-phenothiazin-3-one] | – | – | protect the cells against rotenone cytotoxicity more efficiently than the parent compound MV | more potent and effective in protecting FRDA lymphocytes than the parent compound MV | better potency than 1 or 2 | –
4 | CCCCCCCCCCN(CCCCCCCCCC)c1ccc2nc3ccc(=O)cc-3sc2c1 [Compound 2, 7-(N,N-Didecylamino)-3H-phenothiazin-3-one] | somewhat cytotoxic | reduces cellular ATP levels in all concentrations | – | – | – | –
5 | CN(C)c1ccc2nc3ccc(=O)cc-3sc2c1 [MV, Methylene violet, reference compound] | – | strongly reduces cellular ATP levels in a concentration dependent manner | – | – | – | significantly depolarized Δψm
6 | CCCCCCCCCCCCCCCN(CCCCCCCCCCCCCCC)c1ccc2nc3ccc(=O)cc-3sc2c1 [Compound 3, 7-(N,N-Dipentadecylamino)-3H-phenothiazin-3-one] | – | – | – | – | the least effective | –

Reference: patent US11560360B2, “Therapeutic compounds” (ARIZONA BOARD OF REGENTS ON BEHALF OF ARIZONA STATE …, priority 2016, dated 2023)
